Experimental data as given in patent US6312703A, “Compressed lecithin preparations” (Lecigel, LLC, priority 1999, dated 2001).

Legend:
[1] = tested on: serum cholesterol; assay: Cholesterol lowering in hamsters fed LCP, Lescol or the combination, bled after two weeks; format: in vivo, Golden Syrian hamsters; details: diet with 2% LCP and/or 0.01% Lescol
Procedure: A study was performed to compare the effects of cholesterol reduction using the 2% LCP alone, 0.01% Lescol (a HMG CoA reductase inhibitor) alone, and a combination of 0.01% Lescol mixed with the phospholipids and extruded to create the LCP. The dosage was administered to Golden Syrian hamsters which were bled after two weeks to determine the cholesterol lowering effects.

[2] = tested on: LDL cholesterol; details: 60 hypercholesterolemic patients; Gurevich et al.; cited from earlier work

Structure (SMILES) | HDL [1] | Non HDL [1] | Total Cholesterol [1] | Lovastatin dose required to reduce LDL cholesterol level to a value of 130 [2] [mg/day]
CC(C)n1c(/C=C/[C@@H](O)C[C@@H](O)CC(=O)O)c(-c2ccc(F)cc2)c2ccccc21 (racemic) [Lescol] | 1.77 ± 0.16 | 1.61 ± 0.63 | 3.37 ± 0.67 | 
CC[C@H](C)C(=O)O[C@H]1C[C@@H](C)C=C2C=C[C@H](C)[C@H](CC[C@@H]3C[C@@H](O)CC(=O)O3)[C@H]21 [Lovastatin] |  |  |  | 40
